Experimental findings from paper PMC6367342, “The major allergen Der p 2 is a cholesterol binding protein” (Scientific Reports, 2019) are described below.

This test concerns the target T1, rDer f 2 (Dermatophagoides farinae, UniProt Q00855).
T1 construct: gene DERF2
T1 sequence (Q00855 18-146): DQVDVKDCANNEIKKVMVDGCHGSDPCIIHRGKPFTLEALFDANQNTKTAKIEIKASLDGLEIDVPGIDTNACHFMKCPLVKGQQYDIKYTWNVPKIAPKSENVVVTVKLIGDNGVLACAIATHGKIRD
Put plainly: lipid ELISA on immobilized lipid, polyclonal anti-allergen IgG detection. Type of test: binding. Particulars: 0.5 ug/mL protein; lipid coated 0.02-6.40 nmol/well; PBS, 1% BSA block; 1 h.

Each structure is given as a SMILES string.

For the compound `CC(C)CCC[C@@H](C)[C@H]1CC[C@H]2[C@@H]3CC=C4C[C@@H](O)CC[C@]4(C)[C@H]3CC[C@]12C` [cholesterol], the “lipid ELISA on immobilized lipid, polyclonal anti-allergen IgG detection” value is on record as “also showed dose-dependent binding to cholesterol, but not POPG”.
